# Patent US20210198647A1, “Enhancers of Neurolysin Activity” (Texas Tech University System, priority 2018, published 2021)
# Where “and” joins values, the source holds several entries; their conditions need not be identical. Equal values may be shown once. Read-outs that look alike come from different tables or passages of the source. Marks after values point to notes of the source that are not given here. Peptide text beside a SMILES is read from it.
# How the values were obtained:
# [1] = molecular target: T1, human recombinant neurolysin (Homo sapiens, UniProt Q9BYT8); assay: Enzymatic assay: QFS hydrolysis by human recombinant neurolysin; type: biochemical
# T1 construct: purchased R & D systems 3814-ZN
# Experimental: Enzymatic assays—activity of neurolysin was measured in a continuous assay by documenting the increase in fluorescence occurring upon cleavage of a quenched fluorescent substrate (QFS) Mca-Pro-Leu-Gly-Pro-D-Lys(DNP)-OH (Bachem) (25,36). […] All assays were initiated by addition of QFS (100 μl assay volume in 96-well plates), and each experimental sample was present in duplicate.
# Screening of test compounds—primary screening of top-ranked 40 compounds (received from NCI DTP) was carried out at 10 and 100 μM final assay concentrations. […] In all experiments, test compounds were incubated with neurolysin for 10 min at 37° C. before addition of the substrate to start the reaction. […]
# neprilysin (NEP) = molecular target: T2, neprilysin (NEP) (Homo sapiens, UniProt P08473); assay: Peptidase selectivity: quenched fluorescent substrate hydrolysis by NEP; type: biochemical; details: 300 μM compound; read-out: inhibited activity of NEP by
# T2 construct: purchased R & D systems 1182-ZNC
# [2] = molecular target: T3, angiotensin converting enzyme (ACE) (Homo sapiens, UniProt P12821); assay: Peptidase selectivity: quenched fluorescent substrate hydrolysis by ACE; type: biochemical; details: for inhibition at 300 µM: 300 μM compound, read-out: inhibited activity of ACE by; for effect on activity of ACE (in words): concentration-response up to 300 μM
# T3 construct: purchased R & D systems 929-ZN
# [3] = molecular target: thimet oligopeptidase (TOP) (Homo sapiens, UniProt P52888); assay: Peptidase selectivity: quenched fluorescent substrate hydrolysis by TOP; details: for inhibition at 300 µM: read-out: inhibited activity of TOP by; for effect on activity of TOP (in words): concentration-response up to 300 μM
# Experimental: Activity of recombinant human TOP was assessed in the same way as for neurolysin, except that the assay was carried out in the presence of 0.1 mM dithiothreitol (37).
# [4] = molecular target: T4, rat recombinant neurolysin (Rattus norvegicus, UniProt P42676); assay: Enzymatic assay: QFS hydrolysis by rat recombinant neurolysin; type: biochemical; details: for Km value decreased by / Vmax increased by: 40 μM modulator; for Vmax: QFS hydrolysis; for activity at 10 µM: read-out: % activity at 10; for activity at 100 µM: read-out: % activity at (100)
# T4 construct: polyhistidine (N); made in house; host or cells: Escherichia coli (pBAD/His vector)
# Experimental: Rat recombinant neurolysin—N-terminal polyhistidine tagged recombinant rat neurolysin was produced in Escherichia coli using a plasmid construct in pBAD/His vector system (Invitrogen) kindly provided by Dr. David W. Rodgers (University of Kentucky) (32,33). Bacterial culture was carried out in Terrific Broth in 2 L Erlenmeyer flasks using an incubator shaker (1-2400, New Brunswick Scientific). Expression was induced by addition of arabinose (1 mM final concentration), the cells were pelleted 3 h after induction and stored at −80° C. freezer. Bacterial pellets were resuspended and lysed in phosphate buffer (20 mM NaH2PO4, 500 mM NaCl, 0.05% Tween-20, pH 8.0) containing 0.25 mg/ml lysozyme, 1 mM phenylmethylsulfonyl fluoride, 0.05 mg/ml DNAse and 0.02 mg/ml RNase, followed by brief sonication. After centrifugation (40,000×g, 20 min at 4° C.) the supernatant was applied to a Ni-NTA Superflow cartridge (Qiagen), followed by washing and elution of recombinant neurolysin with phosphate buffer containing 25 and 250 mM imidazole, respectively. The eluted protein was further purified by size exclusion chromatography using a TSK gel BioAssist G2SWxl column (Tosoh bioscience) in AKTA Purifier FPLC system (GE Healthcare). […] Specific activity of recombinant neurolysin was determined by an enzymatic assay described below.
# All assays were initiated by addition of QFS (100 μl assay volume in 96-well plates), and each experimental sample was present in duplicate.
# In all experiments, test compounds were incubated with neurolysin for 10 min at 37° C. before addition of the substrate to start the reaction. All test compounds were dissolved in DMSO at 10 to 50 mM stock concentrations.
# Statistical Analyses—statistical analyses and curve fitting were conducted with GraphPad Prism 6.0 software. For each enzymatic reaction, slope of the line which represents the initial velocity (Vo) for the reaction progress curve was calculated using the liner regression model of the software (Vo=Slope=Δ fluorescent intensity of the reaction product/Δ time). EC50 values for the modulators were calculated by fitting initial velocity values for hydrolysis of QFS by neurolysin in the presence of varying concentrations of a modulator into a nonlinear regression model for the three-parameter log(stimulator) vs. response equation [Y=Bottom+(Top−Bottom)/(1+10^((Log EC50−X)))].
# [5] = molecular target: T5, angiotensin converting enzyme 2 (ACE2) (Homo sapiens, UniProt Q9BYF1); assay: Peptidase selectivity: quenched fluorescent substrate hydrolysis by ACE2; type: biochemical; details: for inhibition at 300 µM: 300 μM compound, read-out: inhibited activity of ACE2 by; for effect on activity of ACE2 (in words): concentration-response up to 300 μM
# T5 construct: purchased R & D systems 933-ZN
# mouse brain neurolysin = molecular target: T6, mouse brain neurolysin (Mus musculus, UniProt Q91YP2); assay: Enzymatic assay: QFS hydrolysis by mouse brain-purified neurolysin; type: biochemical
# T6 construct: P10 mouse forebrains were used for purification of native neurolysin; from tissue; host or cells: P10 mouse forebrain, soluble fraction, size-exclusion fraction
# Experimental: In brief, forebrains were homogenized in hypotonic buffer (20 mM NaPO4, pH 7.2) followed by gentle sonication and centrifugation (30 min at 48,000×g at 4° C.). The resulting supernatant was filtered through a 100 kDa cut-off centrifugal filtering unit and concentrated in a 30 kDa cut-off centrifugal filtering unit (Amicon Ultra; Millipore). Neurolysin was semi-purified from the concentrate by size exclusion chromatography using a Superdex 200 Increase 10/300 GL column (GE Healthcare) in AKTA Purifier FPLC system (GE Healthcare). Elution of neurolysin was tracked by the enzymatic assay described below, and the fraction with the highest neurolysin activity was directly used for the experiments.
# Enzymatic assays—activity of neurolysin was measured in a continuous assay by documenting the increase in fluorescence occurring upon cleavage of a quenched fluorescent substrate (QFS) Mca-Pro-Leu-Gly-Pro-D-Lys(DNP)-OH (Bachem) (25,36). […]
# Statistical Analyses—statistical analyses and curve fitting were conducted with GraphPad Prism 6.0 software. For each enzymatic reaction, slope of the line which represents the initial velocity (Vo) for the reaction progress curve was calculated using the liner regression model of the software (Vo=Slope=Δ fluorescent intensity of the reaction product/Δ time). […]
# Neurolysin (Nln) = molecular target: T7, Neurolysin (Nln) (Rattus norvegicus, UniProt P42676); assay: Nln activation in isolated enzyme assay (A50, Amax); type: biochemical; details: 95% CI in parentheses; for Amax (maximum % activation achieved): 100% = normal enzyme turnover
# T7 construct: polyhistidine (N); made in house; host or cells: Escherichia coli (pBAD/His vector), if the rat enzyme of b61 was used
# [6] = test system: co-culture of primary mouse astrocytes and immortalized mouse endothelial cells (bEnd3); assay: In vitro BBB permeability, apical to basolateral transport; type: in vitro ADME; details: 10 μg/mL, 37° C.
# Experimental: The permeability coefficient (Pe) was calculated from the cleared volume of each compound versus time. Values represent the mean±SD of three measurements.
# Mouse primary astrocytes were isolated from the cerebral cortices of one day old pups (CD-1 mice, Charles Rivers Laboratory) following a literature method.^36 After extracting the brain, cortices were separated, minced and placed in Hank's balanced salt solution (HBSS) without calcium and magnesium, supplemented with gentamycin (10 μg/m). […] The cell suspensions were seeded into a T75 flask and the medium was changed every 3 days for 10-14 days or until reaching confluency.
# For bEnd3 and astrocyte co-culture, the Transwell filters ([…] pore size, 12-well; Corning, Lowell, Mass.) were used. First, the Transwell filter was inverted and astrocytes at a density of 150,000 cells/filter were seeded onto the abluminal side of the filter and allowed to adhere for 4 hours. Then the Transwell filter was inverted back and the cells were grown for 2 days in astrocyte medium. At the end of 48 hours, bEnd3 cells at a density of 50,000 cells/filter were seeded onto the upper/luminal side of the filter and the co-culture of astrocytes and bEnd3 cells were grown for an additional 8 days. The medium for both compartments were changed every other day according to literature proceedures.^37
# The apparent permeability coefficient (Pe, in cm/min) was calculated according to the cleared volume of each time point, as previously described.^38,39
# Permeability measurement for each compound was run for 120 minutes. The media was removed and transwells were rinsed and incubated with HBSS buffer at 37° C. for 30 minutes. […] Concentration of compounds was determined by LC-MS/MS. Since the blank Transwell insert itself (without cells) provides resistance to the passage of buffer and compound from the donor to receiver chamber, the permeability of each compound was also measured in a blank insert and the final permeability coefficient results were calculated by considering the permeability of each compound in a blank insert.
# in vitro = details: mouse
# [7] = In vitro metabolic stability in mouse plasma and brain homogenate; details: 10% mouse brain homogenate; 500 ng/mL; 37° C.
# [8] = Plasma and brain protein binding, rapid equilibrium dialysis (RED); type: in vitro ADME, mouse; details: for fu in Plasma: 500 ng/mL
# Experimental: Plasma and Brain Protein Binding: The rapid equilibrium dialysis (RED) plate and single-use inserts with a membrane MWCO of 8 kDa and sealing tapes for 96-well plates were purchased from (Pierce Biotechnology, Thermo Fisher Scientific, Waltham, Mass.). Test compounds were dissolved in dimethyl sulfoxide and then diluted to 10 μg/mL with water for binding studies. The stock solutions (10 μg/mL) were added to mouse brain homogenates or plasma. The final concentration of the compounds for the equilibrium dialysis experiment was 500 ng/mL. The RED device was assembled according to the manufacturer's instructions. A 200 μL aliquot of plasma or brain homogenate spiked with 500 ng/mL of selected compound was added to the sample chamber of insert (donor) and 400 μL of DPBS was added to the buffer chamber of the dialysis membrane (receiver). Then, the base plate was covered with a sealing tape and was incubated at 37° C. on an orbital shaker at 250 rpm for 4 hours to achieve equilibrium. Compounds were evaluated in triplicate for each experiment. At the end of incubation, equal volumes from both donor and receiver chambers were taken and placed in separate microcentrifuge for content analysis using LC-MS/MS.
# [9] = QFS 15 μM, absence of dynorphin A (1-13)
# [10] = QFS 15 μM, presence of dynorphin A (1-13) 1 μM
# [11] = QFS 25 μM, neurolysin 0.3 nM, 100% = no compound
# T5 sequence (Q9BYF1 18-805): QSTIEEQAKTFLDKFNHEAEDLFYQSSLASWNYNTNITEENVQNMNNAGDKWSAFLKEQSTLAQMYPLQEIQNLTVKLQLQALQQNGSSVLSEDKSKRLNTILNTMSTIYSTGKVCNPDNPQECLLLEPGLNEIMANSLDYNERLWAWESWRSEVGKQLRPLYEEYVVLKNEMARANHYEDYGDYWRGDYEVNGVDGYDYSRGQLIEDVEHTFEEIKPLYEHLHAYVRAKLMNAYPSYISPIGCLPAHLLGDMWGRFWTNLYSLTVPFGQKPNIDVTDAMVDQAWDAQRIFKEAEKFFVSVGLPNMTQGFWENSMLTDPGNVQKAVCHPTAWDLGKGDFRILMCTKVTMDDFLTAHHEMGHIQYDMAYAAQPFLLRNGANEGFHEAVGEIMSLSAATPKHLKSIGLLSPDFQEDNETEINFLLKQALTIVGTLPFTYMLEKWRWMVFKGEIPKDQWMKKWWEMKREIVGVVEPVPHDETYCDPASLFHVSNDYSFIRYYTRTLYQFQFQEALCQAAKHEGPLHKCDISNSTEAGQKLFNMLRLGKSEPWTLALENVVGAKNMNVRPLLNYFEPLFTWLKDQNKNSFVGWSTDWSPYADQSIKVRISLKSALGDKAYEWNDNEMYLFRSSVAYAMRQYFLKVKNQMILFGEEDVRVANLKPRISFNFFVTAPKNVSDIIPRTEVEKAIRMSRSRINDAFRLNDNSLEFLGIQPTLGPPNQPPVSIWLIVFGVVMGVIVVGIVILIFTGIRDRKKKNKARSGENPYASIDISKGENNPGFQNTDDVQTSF
# T3 sequence (P12821 30-1306): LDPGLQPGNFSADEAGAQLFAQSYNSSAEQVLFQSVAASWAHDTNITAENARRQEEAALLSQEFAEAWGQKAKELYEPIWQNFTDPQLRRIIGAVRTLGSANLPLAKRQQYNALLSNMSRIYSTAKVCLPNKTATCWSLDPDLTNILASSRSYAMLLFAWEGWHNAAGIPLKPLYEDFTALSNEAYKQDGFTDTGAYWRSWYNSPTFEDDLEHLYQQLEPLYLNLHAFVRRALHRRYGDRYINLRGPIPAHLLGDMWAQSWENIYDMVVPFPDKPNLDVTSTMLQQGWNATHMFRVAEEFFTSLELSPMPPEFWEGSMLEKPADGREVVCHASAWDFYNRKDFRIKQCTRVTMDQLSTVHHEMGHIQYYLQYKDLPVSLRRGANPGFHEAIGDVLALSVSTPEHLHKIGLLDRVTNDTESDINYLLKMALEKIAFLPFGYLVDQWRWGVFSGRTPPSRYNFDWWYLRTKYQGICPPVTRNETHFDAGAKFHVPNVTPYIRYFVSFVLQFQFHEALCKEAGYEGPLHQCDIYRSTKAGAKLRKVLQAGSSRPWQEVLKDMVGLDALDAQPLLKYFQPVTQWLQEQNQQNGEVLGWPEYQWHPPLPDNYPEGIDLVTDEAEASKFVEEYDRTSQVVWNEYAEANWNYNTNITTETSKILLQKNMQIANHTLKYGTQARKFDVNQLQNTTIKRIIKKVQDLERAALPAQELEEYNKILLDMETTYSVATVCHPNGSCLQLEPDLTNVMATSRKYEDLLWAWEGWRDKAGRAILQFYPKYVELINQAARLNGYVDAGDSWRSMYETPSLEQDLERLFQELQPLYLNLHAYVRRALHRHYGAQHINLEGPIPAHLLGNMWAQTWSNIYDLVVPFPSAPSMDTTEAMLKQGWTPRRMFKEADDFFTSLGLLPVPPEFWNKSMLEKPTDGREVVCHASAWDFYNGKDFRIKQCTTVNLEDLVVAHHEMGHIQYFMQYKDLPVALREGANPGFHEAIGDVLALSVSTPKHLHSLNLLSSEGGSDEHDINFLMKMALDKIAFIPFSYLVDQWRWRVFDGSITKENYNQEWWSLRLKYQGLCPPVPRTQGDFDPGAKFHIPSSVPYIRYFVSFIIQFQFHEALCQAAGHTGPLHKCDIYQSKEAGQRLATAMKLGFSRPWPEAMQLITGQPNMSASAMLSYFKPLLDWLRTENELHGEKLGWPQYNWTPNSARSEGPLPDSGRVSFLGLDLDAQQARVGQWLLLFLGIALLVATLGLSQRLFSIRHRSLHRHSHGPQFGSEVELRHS
# T4 sequence (P42676 38-704): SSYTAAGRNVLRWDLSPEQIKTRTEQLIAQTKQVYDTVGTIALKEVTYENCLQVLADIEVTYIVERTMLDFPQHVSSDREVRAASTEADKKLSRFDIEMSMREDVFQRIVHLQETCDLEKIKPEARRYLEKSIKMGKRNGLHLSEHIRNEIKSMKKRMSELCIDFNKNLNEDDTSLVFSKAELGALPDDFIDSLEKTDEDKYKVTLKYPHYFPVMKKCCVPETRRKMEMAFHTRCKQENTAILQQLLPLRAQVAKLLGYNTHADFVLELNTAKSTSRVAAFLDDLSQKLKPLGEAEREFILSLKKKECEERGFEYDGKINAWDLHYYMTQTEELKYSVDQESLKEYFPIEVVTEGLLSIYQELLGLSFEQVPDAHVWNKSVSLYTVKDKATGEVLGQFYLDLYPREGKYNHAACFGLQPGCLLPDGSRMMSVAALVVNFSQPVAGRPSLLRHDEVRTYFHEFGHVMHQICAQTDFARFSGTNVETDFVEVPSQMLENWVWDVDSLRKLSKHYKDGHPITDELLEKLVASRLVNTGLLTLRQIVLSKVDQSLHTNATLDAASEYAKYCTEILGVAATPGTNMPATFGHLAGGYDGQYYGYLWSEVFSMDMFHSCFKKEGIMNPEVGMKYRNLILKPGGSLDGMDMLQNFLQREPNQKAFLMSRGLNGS
# T7 sequence (P42676 38-704): as above
# Sequence of thimet oligopeptidase (TOP) (P52888 whole entry): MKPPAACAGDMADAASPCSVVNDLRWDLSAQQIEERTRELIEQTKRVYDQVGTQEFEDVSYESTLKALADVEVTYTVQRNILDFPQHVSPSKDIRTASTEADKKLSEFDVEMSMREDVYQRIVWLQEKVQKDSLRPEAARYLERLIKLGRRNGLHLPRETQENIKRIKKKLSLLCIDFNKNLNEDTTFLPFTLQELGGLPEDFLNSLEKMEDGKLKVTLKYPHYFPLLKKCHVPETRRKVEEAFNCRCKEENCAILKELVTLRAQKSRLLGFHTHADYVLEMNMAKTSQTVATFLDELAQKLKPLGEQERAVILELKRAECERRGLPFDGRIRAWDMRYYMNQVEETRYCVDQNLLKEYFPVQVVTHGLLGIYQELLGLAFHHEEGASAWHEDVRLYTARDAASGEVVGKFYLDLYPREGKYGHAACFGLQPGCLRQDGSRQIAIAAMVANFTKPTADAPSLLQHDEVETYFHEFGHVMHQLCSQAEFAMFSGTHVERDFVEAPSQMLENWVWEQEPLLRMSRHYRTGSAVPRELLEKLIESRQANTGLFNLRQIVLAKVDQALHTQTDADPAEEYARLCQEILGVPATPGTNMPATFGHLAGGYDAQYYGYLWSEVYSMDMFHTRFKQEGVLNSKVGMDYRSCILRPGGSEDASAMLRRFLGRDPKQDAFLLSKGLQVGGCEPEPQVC
# T6 sequence (Q91YP2 38-704): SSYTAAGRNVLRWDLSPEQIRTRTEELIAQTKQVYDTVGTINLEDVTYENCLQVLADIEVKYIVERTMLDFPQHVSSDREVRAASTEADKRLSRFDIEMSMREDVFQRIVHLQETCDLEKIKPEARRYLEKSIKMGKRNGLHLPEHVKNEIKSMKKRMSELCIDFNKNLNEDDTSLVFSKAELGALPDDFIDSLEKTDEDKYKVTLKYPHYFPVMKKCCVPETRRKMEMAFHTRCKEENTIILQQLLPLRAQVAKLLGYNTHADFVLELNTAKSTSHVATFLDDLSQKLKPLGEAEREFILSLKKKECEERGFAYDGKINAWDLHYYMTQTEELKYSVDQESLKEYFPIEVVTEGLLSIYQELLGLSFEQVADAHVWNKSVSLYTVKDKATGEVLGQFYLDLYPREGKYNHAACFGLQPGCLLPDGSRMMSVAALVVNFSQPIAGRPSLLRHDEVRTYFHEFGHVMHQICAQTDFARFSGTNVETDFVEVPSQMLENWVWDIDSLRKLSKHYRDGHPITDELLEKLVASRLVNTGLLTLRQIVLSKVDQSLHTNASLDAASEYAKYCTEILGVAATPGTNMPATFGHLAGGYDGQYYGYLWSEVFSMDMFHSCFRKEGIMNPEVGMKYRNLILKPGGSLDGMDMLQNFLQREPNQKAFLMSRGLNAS
smiles,measurement,setting,value
"N[C@@H](Cc1c[nH]cn1)C(=O)N[C@@H](Cc1ccc(O)cc1)C(=O)O [NlnA#1, L-histidyl-L-tyrosine] (H-His-Tyr-OH)",Emax,[1],204%
same,inhibition at 300 µM,neprilysin (NEP),2.9 ± 4.7%
same,inhibition at 300 µM,[2],22.6 ± 2.5%
same,inhibition at 300 µM,[3],25.9 ± 0.7%
same,Km value decreased by,[4],~43%
same,Vmax increased by,[4],~29%
same,Emax,[4]; [9],292%
same,Emax,[4]; [10],238%
same,Emax,[4]; [11],235%
same,Vmax,[4]; rNln + 40 μM modulator,124.2*** FLU/ng protein per min
same,Vmax,[4]; rNln + 100 μM modulator,164.8*** FLU/ng protein per min
same,activity at 10 µM,[4],121%
same,activity at 100 µM,[4],226%
same,inhibition at 300 µM,[5],13.4 ± 2.9%
same,Emax,mouse brain neurolysin,190%
"NC(Cc1c[nH]cn1)C(=O)NC(Cc1c[nH]cn1)C(=O)O (mixture of isomers) [NlnA#2, D,L-histidyl-D,L-histidine]",Emax,[1],214%
same,inhibition at 300 µM,neprilysin (NEP),1.6 ± 2%
same,inhibition at 300 µM,[2],12.2 ± 1.8%
same,inhibition at 300 µM,[3],15.6 ± 2.6%
same,Km value decreased by,[4],~42.4%
same,Vmax increased by,[4],~16.5%
same,Emax,[4]; [9],255%
same,Emax,[4]; [10],198%
same,Emax,[4]; [11],203%
same,Vmax,[4]; rNln + 40 μM modulator,112.5* FLU/ng protein per min
same,Vmax,[4]; rNln + 100 μM modulator,148.2*** FLU/ng protein per min
same,activity at 10 µM,[4],122%
same,activity at 100 µM,[4],206%
same,inhibition at 300 µM,[5],10.9 ± 2.9%
same,Emax,mouse brain neurolysin,258%
"N[C@@H](Cc1c[nH]cn1)C(=O)NCc1ccc2ccccc2c1 [Compound 10a, (S)-2-amino-3-(1H-imidazol-4-yl)-N-(naphthalen-2-ylmethyl)propanamide]",effect on activity of TOP (in words),[3],No appreciable inhibition
same,EC50,Neurolysin (Nln); read-out: A50 (concentration required to activate Nln by 50%),4.4 µM
same,Amax (maximum % activation achieved),Neurolysin (Nln),210.9 (191.7 to 231.9) %
"N[C@@H](Cc1c[nH]cn1)C(=O)Nc1cccc2cccnc12 [Compound 11a, (S)-2-amino-3-(1H-imidazol-4-yl)-N-(quinolin-8-yl)propanamide]",effect on activity of ACE (in words),[2],show inhibition of ACE at high concentration
same,permeability coefficient (Pe),[6],1.14±0.02×10^−3 cm/min
same,effect on activity of ACE2 (in words),[5],showed inhibition of ACE2 at high concentrations
same,Amax (maximum % activation achieved),Neurolysin (Nln),252.4 (231.4 to 274.9) %
"N[C@@H](Cc1c[nH]cn1)C(=O)NCCc1c[nH]c2ccccc12 [Compound 9d, (S)—N-(2-(1H-indol-3-yl)ethyl)-2-amino-3-(1H-imidazol-4-yl)propanamide]",half-life at 500 ng/mL,in vitro; mouse plasma,> 16.7 h
same,t1/2 Mouse Brain,[7],1.1 h and 1.09 ± 0.07 h
same,fu in Plasma,[8]; mouse plasma,0.63 ± 0.076
same,effect on activity of ACE (in words),[2],show inhibition of ACE at high concentration
same,permeability coefficient (Pe),[6],1.07±0.12×10^−3 cm/min
same,effect on activity of TOP (in words),[3],only exhibited inhibition at concentrations approaching 300 μM
same,effect on activity of ACE2 (in words),[5],showed inhibition of ACE2 at high concentrations
same,Amax (maximum % activation achieved),Neurolysin (Nln),259 (240.7 to 281) %
same,EC50,Neurolysin (Nln); A50 (concentration required to activate Nln by 50%),6.1 µM
"N[C@@H](Cc1c[nH]cn1)C(=O)N[C@@H](Cc1c[nH]c2ccccc12)C(=O)O [Compound 4, Histidine-tryptophan]",half-life at 500 ng/mL,in vitro; plasma,> 5 h
same,fu in Plasma,[8]; mouse plasma,0.93 ± 0.13
"N[C@@H](Cc1c[nH]cn1)C(=O)NCc1cccc2ccccc12 [Compound 10c, (S)-2-amino-3-(1H-imidazol-4-yl)-N-(naphthalen-1-ylmethyl)propanamide]",t1/2 Mouse Brain,[7],1.33 h and 1.34 ± 0.033 h
same,"fraction unbound at 4 h, 500 ng/mL","[8]; mouse brain homogenate, read-out: fu in Brain",0.052 ± 0.003
same,"fraction unbound at 4 h, 500 ng/mL","[8]; mouse plasma, read-out: fu in Plasma",0.45 ± 0.013
same,effect on activity of ACE (in words),[2],no inhibition at the maximum concentration tested
same,permeability coefficient (Pe),[6],1.09±0.09×10^−3 cm/min
same,effect on activity of TOP (in words),[3],No appreciable inhibition
same,effect on activity of ACE2 (in words),[5],no inhibition up to 300 μM
same,Amax (maximum % activation achieved),Neurolysin (Nln),264 (256.3 to 272.6) %
